Reference: PubChem BioAssay (NCI)
Where “and” joins values, the source holds several entries; their conditions need not be identical. Equal entries are not always repeated.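 All cell lines were grown in 96-well plates and treated with compound for 48 hours. GI50 = concentration required for 50% inhibition of growth. TGI denotes the concentration required for complete inhibition of growth.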

Columns and labels:
Assay in all cases: DTP human tumour cell line panel, 48 h
SF-295 CNS = tested on: SF-295 CNS
M14 melanoma = tested on: M14 melanoma
OVCAR-4 ovarian = tested on: OVCAR-4 ovarian
LXFL 529 NSCLC = tested on: LXFL 529 NSCLC
HCT-15 colon = tested on: HCT-15 colon
DMS 114 small cell lung = tested on: DMS 114 small cell lung
NCI-H23 lung = tested on: NCI-H23 lung
SF-539 CNS = tested on: SF-539 CNS
SW-620 colon = tested on: SW-620 colon
DU-145 prostate = tested on: DU-145 prostate

Compound | TGI (SF-295 CNS) | TGI (M14 melanoma) | TGI (OVCAR-4 ovarian) | TGI (LXFL 529 NSCLC) | TGI (HCT-15 colon) | TGI (DMS 114 small cell lung) | TGI (NCI-H23 lung) | TGI (SF-539 CNS) | TGI (SW-620 colon) | GI50 (SF-295 CNS) | GI50 (M14 melanoma) | GI50 (DU-145 prostate) | TGI (DU-145 prostate) | GI50 (OVCAR-4 ovarian) | GI50 (HCT-15 colon) | GI50 (NCI-H23 lung) | GI50 (SF-539 CNS) | GI50 (SW-620 colon)
N#C/C(=C/c1cccnc1)C(=O)c1ccccc1 | > 100 µM | > 100 µM | > 100 µM | > 100 µM | > 100 µM | > 100 µM | > 100 µM | > 100 µM | > 100 µM |  |  |  |  |  |  |  |  | 
O=C(CC/C(C/C(=N/O)c1ccc(F)cc1)=N/O)N(Cc1ccccc1)Cc1ccccc1 | > 100 µM | > 100 µM | > 100 µM | > 100 µM | > 100 µM | > 100 µM | > 100 µM | > 100 µM | > 100 µM |  |  |  |  |  |  |  |  | 
CC1C=C(OC(=O)c2ccccc2)C(=O)C(n2cc(F)c(=O)n(C(=O)c3ccccc3)c2=O)O1 (configuration not stated) | > 100 µM | > 100 µM | > 100 µM |  | > 100 µM | > 100 µM | > 100 µM | > 100 µM | 96.6 µM |  |  |  |  |  |  |  |  | 
C#CCN1CCN(C(=S)N/N=C(\C)c2ccccn2)CC1 | 7.91 µM and 4.8 µM | 6.03 µM and 3.32 µM | 4.74 µM and 3.84 µM | 18.2 µM | 4.19 µM |  | 3.99 µM | 5.78 µM and 4.56 µM | 7.3 µM and 4.27 µM | 2.11 µM | 0.0781 µM | 1.19 µM | 4.74 µM and 6.36 µM | 2.73 µM | 0.019 µM | 0.00567 µM |  | 
Cc1ccc(S(=O)(=O)N2CCC3(C(/C=C/c4ccccc4)=Nc4ccccc43)C2c2ccccc2)cc1 (configuration not stated) | > 100 µM | > 100 µM | > 100 µM | > 100 µM | > 100 µM | > 100 µM | > 100 µM | > 100 µM | > 100 µM |  |  |  |  |  |  |  |  | 
O=C1CC2CCCCC2=C1O (configuration not stated) | > 100 µM |  | > 100 µM | > 100 µM | > 100 µM | > 100 µM | > 100 µM | > 100 µM | > 100 µM |  |  |  |  |  |  |  |  | 
CN(C)c1ccc(/C=C2\CNC/C(=C\c3ccc(N(C)C)cc3)C2=O)cc1 | > 100 µM | > 100 µM | 29.7 µM | 98.2 µM | 15.5 µM | 34.7 µM | > 100 µM | > 100 µM |  |  |  |  |  |  |  |  |  | 
Cc1cc(N(CCC#N)CCC#N)ccc1/C=C(\NC(=O)/C=C/c1ccccc1)NC(=O)Nc1ccc(Cl)cc1 | > 100 µM | > 100 µM | > 100 µM | > 100 µM | > 100 µM | > 100 µM | > 100 µM | > 100 µM | > 100 µM |  |  |  |  |  |  |  |  | 
CCCCCCCCCCCCCC/C(C(=O)OC)=C(/O)C(=O)OCC | 40.9 µM | 37.4 µM | > 100 µM | > 100 µM | 36.3 µM | > 100 µM | > 100 µM | > 100 µM | > 100 µM |  |  |  |  |  |  |  |  | 
COc1ccc(NC(=O)C(=O)NNC(=O)c2sc(NNC(C)=O)nc2C)c([N+](=O)[O-])c1 | > 100 µM | > 100 µM | > 100 µM | > 100 µM | > 100 µM | > 100 µM | > 100 µM | > 100 µM | > 100 µM |  |  |  |  |  |  |  |  | 
CC1CCCC(C(O)CC2CC(=O)N(c3ccccc3)C(=O)C2)C1=O (configuration not stated) | > 100 µM | > 100 µM | > 100 µM | > 100 µM |  | > 100 µM | > 100 µM | > 100 µM | > 100 µM |  |  |  |  |  |  |  |  | 
CN1CCN(c2ccc(-c3cnc4c(-c5csc6ccccc56)cnn4c3)cc2)CC1 | > 15 µM | > 15 µM | > 15 µM |  | > 15 µM |  | > 15 µM | 4.62 µM | 10.1 µM | > 15 µM | 5.01 µM | 5.59 µM | > 15 µM | 11.2 µM | 3.65 µM | 6.06 µM | 2.36 µM | 3.73 µM
O=C(O)CCC1COc2ccccc2O1 (configuration not stated) | > 10 µM | > 10 µM | > 10 µM |  | > 10 µM |  | > 10 µM | > 10 µM | > 10 µM |  |  |  | > 10 µM |  |  |  |  | 
Nc1nc2ccc([C@@H]3Nc4ccc5[nH]ncc5c4[C@H]4[C@H]5CCC(C5)[C@H]43)cc2s1 | 5.95 µM | 2.62 µM | 6.05 µM |  | 2.64 µM |  | 3.72 µM | 2.88 µM | 1.87 µM | 0.648 µM | 0.654 µM | 1.63 µM | 5.78 µM | 2.2 µM | 0.505 µM | 1.58 µM | 0.812 µM | 0.474 µM
O=C(Nc1cnn2ccc(N3CCC[C@@H]3c3cc(F)ccc3F)nc12)N1CC[C@H](O)C1 | > 100 µM | > 100 µM | > 100 µM |  | > 100 µM |  | > 100 µM | > 100 µM | > 100 µM | > 100 µM | > 100 µM | > 100 µM | > 100 µM | > 100 µM | > 100 µM | > 100 µM | > 100 µM | > 100 µM
CC12O[C@H](c3ccccc3)[C@H](c3ccccc3)N1C(=O)C1(C(=O)OCc3ccccc3)CC12 (some centres not stated) | > 100 µM | > 100 µM | > 100 µM | > 100 µM | > 100 µM | > 100 µM |  |  | > 100 µM |  |  |  |  |  |  |  |  | 
NC1=NC(c2ccccc2)N=C(Nc2ccccc2)N1 (configuration not stated) | > 100 µM | > 100 µM | > 100 µM |  | > 100 µM |  | > 100 µM | > 100 µM | > 100 µM | > 100 µM | > 100 µM | > 100 µM | > 100 µM | > 100 µM | > 100 µM | > 100 µM | > 100 µM | > 100 µM
COC(=O)[C@]12CC[C@@H](C)[C@H](C)[C@@H]1C1=CC[C@@H]3[C@@]4(C)C(C=O)=C[C@@](C)(COC(C)=O)[C@@H]4[C@H](O)C[C@@]3(C)[C@]1(C)CC2 | 3.54 µM | 5.51 µM | 10.7 µM |  | 3.06 µM |  | 7.35 µM | 4.14 µM | 8.21 µM | 1.67 µM | 2.15 µM | 1.91 µM | 3.93 µM | 2.64 µM | 1.54 µM | 2.76 µM | 1.93 µM | 2.66 µM
C/C=C(\C)C(=O)O[C@@H]1C(O)[C@H]2OC(COC(=O)CCC(=O)CCCCCC[C@H](CCCCC)O[C@@H]3OC(C)[C@H](OC(C)=O)C(O)[C@H]3O2)[C@H]1OC(=O)/C=C/c1ccccc1 (some centres not stated) | 1.15 µM | 0.123 µM | 42.5 µM |  | > 100 µM |  | 62.3 µM | 1.96 µM | > 60 µM | < 0.01 µM | < 0.01 µM | 0.0201 µM | > 44.2 µM | 1.74 µM | 0.034 µM | 0.293 µM | < 0.01 µM | < 0.0114 µM
